Laboratory results from US20240009220A1, “METHODS FOR TREATMENT OF VIRAL INFECTIONS” (priority 2022, published 2024).
Like-named read-outs stand apart in the source and are kept apart here.

How the values were obtained:
[1] = female, New Zealand White, rabbit, in vivo, po, 125 mg/kg/day
Protocol: (§1) The effects of compound 16 on pregnant New Zealand White (NZW) rabbits and the development of the embryo consequent to exposure of the female from implantation to closure of the hard palate (Gestation Days [GD] 7 through 19) was evaluated. Compound 16 was administered to 4 groups of pregnant rabbits (20/group) at doses of 0 (0.5% methylcellulose in deionized water), 125, 250, and 500 mg/kg/day once daily via oral gavage during organogenesis (GD 7 to 19). Assessment of toxicity was based on mortality, clinical observations, body weights, food consumption, and necropsy and cesarean section findings. In addition, blood samples were collected for toxicokinetic evaluation of compound 16 and compound 1 from similarly dosed animals (4/group).

SARS-CoV-2 Fluc = format: cell-based
[2] = female, Wistar Han, rat, in vivo, po, 250 mg/kg/day
Protocol: (§2) The effects of compound 16 on pregnant Wistar Han rats and development of the embryo consequent to exposure of the female from implantation to closure of the hard palate were evaluated. Compound 16 was administered to 4 groups of presumed pregnant rats (8/group) at doses of 0 (vehicle), 125, 250, and 500 mg/kg/day via once daily gavage administration during organogenesis (gestation days [GD] 6 to 17) at a dose volume of 5 mL/kg. Additional pregnant rats were similarly dosed for toxicokinetic assessment of compound 16 and compound 1. Assessment of toxicity to the pregnant rats was based on mortality, clinical observations, body weights and food consumption. Rats were necropsied and cesarean sectioned on GD 21. An examination of the external features of the carcass; external body orifices; abdominal, thoracic, pelvic, and oral cavities; organs; and tissues was performed. Any macroscopic abnormalities were noted. Pregnancy status was determined. The uterus from each pregnant animal was excised, weighed, and examined for the number and placement of live and dead fetuses, the number of early or late resorptions, and any abnormalities. The right and left ovaries from each pregnant female were examined for the number of corpora lutea. Each fetus was sexed, weighed, and examined for external abnormalities. […]

pregnant Wistar Han rats [3] = experiment: Enhanced dose range-finding embryo-fetal development study of compound 16 by oral gavage in Wistar Han rats; details: rat, in vivo
Protocol: as §2

[4] = as above; details: female, Wistar Han, rat, in vivo, po
Protocol: as §2

[5] = Oral gavage embryo-fetal development study with compound 16 in rabbits; details: female, New Zealand White, rabbit, in vivo, po
Protocol: as §1

[6] = test system: pregnant New Zealand White (NZW) rabbits; experiment: as above
Protocol: as §1

pregnant Wistar Han rats [7] = experiment: Embryo-fetal development study of compound 16 by oral gavage in Wistar Han rats; format: in vivo; details: 125 and 250 mg/kg/day, GD 6 to 17, rats
Protocol: (§3) The potential of compound 16 to induce developmental toxicity after maternal exposure during the critical period of organogenesis (GD 6 through 17) were evaluated, maternal toxicity at the exposure levels tested was characterized, and a no observed-adverse-effect level (NOAEL) for maternal toxicity and developmental toxicity following oral administration in Wistar Han rats was determined.
(§4) Rats were necropsied and cesarean sectioned on GD 21. […] Any macroscopic abnormalities were noted. Pregnancy status was determined. […] The thoracic and abdominal cavities were opened and dissected using a technique described by Stuckhardt and Poppe (1984). Fetal kidneys were examined and graded for renal papillae development (Woo and Hoar, 1972). The heads from these fetuses were removed and placed in Harrison's fixative for soft tissue examination using the Wilson sectioning technique (Wilson, 1965). The remaining fetuses (approximately one-half from each litter), were eviscerated, fixed in 100% ethyl alcohol, macerated in potassium hydroxide and stained with Alizarin Red S by a method similar to that described by Dawson (1926) for subsequent examination of skeletons.

[8] = as above; format: in vivo; details: female, rat, in vivo; pregnant Wistar Han rats, once daily oral gavage GD 6 to 17, definitive study; read-out: no-observed-adverse-effect level (NOAEL) for maternal toxicity and embryofetal development
Protocol: as §3, §4

SMILES	compound 1 AUC0-24h exposure [1]	Bliss independence consensus score, Average of Replicates (SARS-CoV-2 Fluc)	drug combination effect by Bliss score (SARS-CoV-2 Fluc)	compound 1 AUC0-24h exposure [2]	tolerability of dose level (pregnant Wistar Han rats [3])	NOAEL [4] [mg/kg/day]	NOAEL [5] [mg/kg/day]	skeletal malformations ([6]; rabbit fetuses)	fetal visceral findings ([6]; rabbit, in vivo, 250 mg/kg/day)	effects on intrauterine growth or survival (pregnant Wistar Han rats [7])	external, visceral or skeletal malformations or variations (pregnant Wistar Han rats [7])	NOAEL [8] [mg/kg/day]
N#C[C@@]1(c2ccc3c(N)ncnn23)O[C@H](CO)[C@@H](O)[C@H]1O [Compound 1]	64,100 ng*h/mL	8.00±1.09	Additive	183,000 ng*h/mL	–	–	–	–	–	–	–	–
CC(C)C(=O)OC[C@H]1O[C@@](C#N)(c2ccc3c(N)ncnn23)[C@H](O)[C@@H]1O [Compound 16]	–	6.15±2.16	Additive	–	not tolerated	250	125	No compound 16-related skeletal malformations	increased rates of ventricular septum defects, large or small heart ventricles, dilated or malpositioned aortas, retroesophageal aortic arches, retroesophageal subclavian arteries, abnormal lobulation of the liver	No compound 16-related effects	No compound 16-related external, visceral or skeletal malformations or variations	250
CC(C)C(=O)OC[C@H]1O[C@@H](n2ccc(NO)nc2=O)[C@H](O)[C@@H]1O [molnupiravir, Molnupiravir, reference compound]	–	−2.47	Additive	–	–	–	–	–	–	–	–	–
CC(C)(C)[C@H](NC(=O)C(F)(F)F)C(=O)N1C[C@H]2[C@@H]([C@H]1C(=O)N[C@H](C#N)C[C@@H]1CCNC1=O)C2(C)C [nirmatrelvir, reference compound]	–	0.13±1.53	Additive	–	–	–	–	–	–	–	–	–
